Like-named read-outs stand apart in the source and are kept apart here.
Columns and labels:
[1] = other bond, K2CO3/18-crown-6, toluene, 25.0 °C
[2] = system: National Cancer Institute's (NCI) panel of 60 human tumor cell lines; conditions: mean over the entire NCI 60 human tumor cell line panel; cited from earlier work
[3] = system: human cancer cell lines BXP-3, MCF-3, F-268, NCl-H460, KM20L2, DU-145; assay: Cancer growth inhibition, average over the six human cancer cell line panel; format: cell-based; conditions: for GI50: Homo sapiens, average over six human cancer cell lines; for tumor cell growth inhibitory activity compared with (+)-phorboxazole A (in words): summary of the six cell line panel
Experimental: (§1) With (+)-phorboxazole A (XVIII) and the eight phorboxazole analogues in hand, biological evaluation against a diverse panel of human cancer cell lines was conducted in the laboratory of Professor George R. Pettit at the Cancer Research Institute of Arizona State University. Specifically, cancer growth inhibition efficacy was evaluated against the human cancer cell lines; BXP-3 (pancreatic), MCF-3 (breast), F-268 (CNS), NCl-H460 (non-small lung), KM20L2 (colon), and DU-145 (prostate) (Smith, et al. Org. Lett. 2005, 7, 4403; Smith, et al. Org. Lett. 2005, 8, 797).

[4] = system: NCl-H460 (non-small lung); assay: Cancer growth inhibition, non-small lung cancer cell line; format: cell-based; conditions: Homo sapiens
Experimental: as §1

[5] = system: KM20L2 (colon); assay: Cancer growth inhibition, colon cancer cell line; format: cell-based; conditions: Homo sapiens, KM-20L2
Experimental: as §1

[6] = system: F-268 (CNS); assay: Cancer growth inhibition, CNS cancer cell line; format: cell-based; conditions: Homo sapiens
Experimental: as §1

[7] = system: BXP-3 (pancreatic); assay: Cancer growth inhibition, pancreatic cancer cell line; format: cell-based; conditions: Homo sapiens
Experimental: as §1

[8] = system: MCF-3 (breast); assay: Cancer growth inhibition, breast cancer cell line; format: cell-based; conditions: Homo sapiens
Experimental: as §1

C=C1C[C@@H]2C[C@@H]3CCO[C@@H](O3)c3coc(n3)/C=C/C[C@H]3O[C@@H](/C(C)=C/I)[C@H](C)[C@@H](OC(=O)/C=C\C[C@@H](C1)O2)[C@H]3C
ring closure, yield of all isomers ([1]; from C=C1C[C@H](C[C@@H]2CCO[C@H](c3coc(/C=C/C[C@H]4O[C@@H](/C(C)=C/I)[C@H](C)[C@@H](OC(=O)CP(=O)(OCC(F)(F)F)OCC(F)(F)F)[C@H]4C)n3)O2)O[C@@H](CC=O)C1, 0.74 mM, 2.0 h): 86%

C=C1C[C@@H]2C[C@@H]3C[C@@H](O[Si](C)(C)C(C)(C)C)C[C@@H](O3)c3coc(n3)/C=C/C[C@H]3O[C@@H](/C(C)=C/I)[C@H](C)[C@@H](OC(=O)/C=C\C[C@@H](C1)O2)[C@H]3C
ring closure, yield of all isomers ([1]; from C=C1C[C@H](C[C@@H]2C[C@@H](O[Si](C)(C)C(C)(C)C)C[C@H](c3coc(/C=C/C[C@H]4O[C@@H](/C(C)=C/I)[C@H](C)[C@@H](OC(=O)CP(=O)(OCC(F)(F)F)OCC(F)(F)F)[C@H]4C)n3)O2)O[C@@H](CC=O)C1, 0.706 mM, 3.0 h): 96%

C=C1C[C@@H]2C[C@H]3C[C@@H](O)C[C@H](O3)c3coc(n3)/C=C\C[C@H]3O[C@@H](/C(C)=C/c4coc(C[C@]5(O)C[C@H](OC)C[C@H]([C@H](O)/C=C(C)/C=C/[C@@H](C/C=C/Br)OC)O5)n4)[C@H](C)[C@@H](OC(=O)/C=C\C[C@@H](C1)O2)[C@H]3C [(+)-Phorboxazole B, Phorboxazole B]
GI50 [2]: 1.58 nM

C=C1C[C@@H]2C[C@@H]3C[C@@H](O)C[C@@H](O3)c3coc(n3)/C=C/C[C@H]3O[C@@H](/C(C)=C/c4coc(C[C@]5(O)C[C@H](OC)C[C@H]([C@H](O)/C=C(C)/C=C/[C@@H](C/C=C/Br)OC)O5)n4)[C@H](C)[C@@H](OC(=O)/C=C\C[C@@H](C1)O2)[C@H]3C [XVIII, Phorboxazole A, reference compound]
GI50 [3]: 5 nM | GI50 [2]: 1.58 nM

C#CC[C@H](/C=C/C(C)=C/[C@@H](O)[C@H]1C[C@@H](OC)C[C@@](O)(Cc2nc(/C=C(\C)[C@@H]3O[C@@H]4C/C=C/c5nc(co5)[C@H]5C[C@H](O)C[C@@H](C[C@H]6CC(=C)C[C@H](C/C=C/C(=O)O[C@@H]([C@H]4C)[C@H]3C)O6)O5)co2)O1)OC [XVIIaE, E-C(2-3)-C(45-46)-Alkynyl-Phorboxazole]
GI50 [3]: 281 nM

C#CC[C@H](/C=C/C(C)=C/[C@@H](O)[C@H]1C[C@@H](OC)C[C@@](O)(Cc2nc(/C=C(\C)[C@@H]3O[C@@H]4C/C=C/c5nc(co5)[C@H]5C[C@H](O)C[C@@H](C[C@H]6CC(=C)C[C@H](C/C=C\C(=O)O[C@@H]([C@H]4C)[C@H]3C)O6)O5)co2)O1)OC [XVIIaZ, C(45-46)-Alkynyl-Phorboxazole]
GI50 [3]: 5.2 nM | tumor cell growth inhibitory activity compared with (+)-phorboxazole A (in words) [3]: activity comparable to that of (+)-phorboxazole A

C=C1C[C@@H]2C[C@@H]3C[C@@H](O)C[C@@H](O3)c3coc(n3)/C=C/C[C@H]3O[C@@H](/C(C)=C/c4coc(C[C@]5(O)C[C@H](OC)C[C@H]([C@H](O)/C=C(C)/C=C/[C@@H](CCC)OC)O5)n4)[C@H](C)[C@@H](OC(=O)/C=C\C[C@@H](C1)O2)[C@H]3C [XVIIb, C(45-46)-Alkyl-Phorboxazole]
GI50 [3]: 3.1 nM | tumor cell growth inhibitory activity compared with (+)-phorboxazole A (in words) [3]: activity comparable to that of (+)-phorboxazole A | GI50 [4]: 1.6 nM | GI50 [5]: 1.3 nM

C=CC[C@H](/C=C/C(C)=C/[C@@H](O)[C@H]1C[C@@H](OC)C[C@@](O)(Cc2nc(/C=C(\C)[C@@H]3O[C@@H]4C/C=C/c5nc(co5)[C@H]5C[C@H](O)C[C@@H](C[C@H]6CC(=C)C[C@H](C/C=C\C(=O)O[C@@H]([C@H]4C)[C@H]3C)O6)O5)co2)O1)OC [XVIIc, C(45-46)-Alkenyl-Phorboxazole]
GI50 [3]: 4.1 nM | tumor cell growth inhibitory activity compared with (+)-phorboxazole A (in words) [3]: activity comparable to that of (+)-phorboxazole A

C=C1C[C@@H]2C[C@@H]3C[C@@H](O)C[C@@H](O3)c3coc(n3)/C=C/C[C@H]3O[C@@H](/C(C)=C/c4coc(C[C@]5(O)C[C@H](OC)C[C@H]([C@H](O)/C=C(C)/C=C/[C@@H](C/C=C/Cl)OC)O5)n4)[C@H](C)[C@@H](OC(=O)/C=C\C[C@@H](C1)O2)[C@H]3C [XVIId, C(45-46)-E-Chloroalkenyl-Phorboxazole]
GI50 [6]: 0.49 nM | GI50 [7]: 0.62 nM | tumor cell growth inhibitory activity compared with (+)-phorboxazole A (in words) [3]: activity greater than that of (+)-phorboxazole A | GI50 [4]: 0.64 nM | GI50 [5]: 0.38 nM

C=CC[C@H](/C=C/C(C)=C/[C@@H](O)[C@H]1C[C@@H](OC)C[C@](Cc2nc(/C=C(\C)[C@@H]3O[C@H](CCO)[C@H](C)[C@H](OCc4ccc(OC)c(OC)c4)[C@H]3C)co2)(OC)O1)OC [XVIIe, C(45-46)-Alkenyl-C(22-26)-Central Tetrahydropyran Phorboxazole]
activity across the entire cell line panel (in words) ([3]; six human cancer cell lines): inactive

C#CC[C@H](/C=C/C(C)=C/[C@@H](O)[C@H]1C[C@@H](OC)C[C@@](O)(Cc2nc(/C=C(\C)[C@@H]3O[C@@H]4C/C=C/c5nc(co5)[C@H]5OCC[C@@H](C[C@H]6CC(=C)C[C@H](C/C=C/C(=O)O[C@@H]([C@H]4C)[C@H]3C)O6)O5)co2)O1)OC [XVIIfE, E-C(2-3) C(11-15)-Acetal Alkynyl Phorboxazole]
GI50 [3]: 944 nM

C#CC[C@H](/C=C/C(C)=C/[C@@H](O)[C@H]1C[C@@H](OC)C[C@@](O)(Cc2nc(/C=C(\C)[C@@H]3O[C@@H]4C/C=C/c5nc(co5)[C@H]5OCC[C@@H](C[C@H]6CC(=C)C[C@H](C/C=C\C(=O)O[C@@H]([C@H]4C)[C@H]3C)O6)O5)co2)O1)OC [XVIIfZ, Z-C(2-3) C(11-15)-Acetal Alkynyl Phorboxazole]
GI50 [3]: 34.6 nM | GI50 [5]: 11.8 nM | GI50 [8]: 18.3 nM

Source: patent US7485631B2, “Phorboxazole compounds and methods of their preparation” (The Trustees of the University of Pennsylvania, priority 2005, dated 2009)
